Measurements as given in patent publication US20260109732A1, “LIPID AMINES” (ModernaTX, Inc., priority 2021, published 2026).
Counter-ions that a name gives are not always drawn.

How the values were obtained:
HeLa cells [1] = assay: CFTR Protein Expression Assay in HeLa Cells; format: cell-based, Human; conditions: LNPs encapsulating CFTR mRNA, N=4 wells; 5 h serum-free then 24 h; immunofluorescence vs PBS control
How it was run: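 Readout is fold-change in per-cell CFTR immunofluorescence intensity (488 nm, confocal imaging) relative to PBS-treated cells, from 4 replicate wells. LNPs encapsulating CFTR mRNA were applied serum-free for 5 h, followed by 24 h in complete medium before PFA fixation.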

[2] = Diameter and PDI from DLS measurements of mRNA nanoparticles with lipid amines; format: physicochemical
How it was run: (§1)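 DLS gave size and PDI, and Ribogreen gave encapsulation, for luciferase- or CFTR-mRNA nanoparticles (N:P 4.93). Particles came from IL1/DSPC/cholesterol/PEG-DMG-2K mixed at pH 4, mRNA-loaded, neutralized with TRIS pH 8.12, and then treated with lipid amine SA50 in pH 7.5 buffer.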

[3] = Encapsulation of mRNA nanoparticles with lipid amines using Ribogreen assay; format: physicochemical
How it was run: as §1

HeLa cells [4] = assay: Luciferase Protein Expression Assay in HeLa Cells; format: cell-based, Human; conditions: LNPs encapsulating Luciferase mRNA, 25 ng per well, N=4 wells; 5 h serum-free then 24 h; ONE-Glo
Description: For HeLa studies evaluating luciferase protein expression, PEG-DMG-2K dissolved in a 20 mM TRIS buffer (pH 7.5) is added to the neutralized intermediate nanoparticle solution at a ratio of 1:6, bringing the solution to the final molar ratios of IL1:DSPC:cholesterol:PEG-DMG-2K of 48.5:11.1:38.9:1.5%. This nanoparticle formulation is then modified with lipid amines. In a typical example, nanoparticle formulation at a concentration of 0.18 mg/mL mRNA and a 0.56 mL volume is modified with lipid amine SA50 (467.2 nmol) prepared in buffer containing 20 mM TRIS, 14.3 mM sodium acetate, 32 g/L sucrose and 140 mM NaCl-pH 7.5 at a volumetric ratio of 1:1 of nanoparticle:buffer.
Lipid nanoparticle compositions were prepared in a manner analogous to that in example 2. To evaluate LNP cellular uptake and protein expression In Vitro, HeLa cells from ATCC.org (ATCC CCL-2) are used. The cells are cultured in complete Minimum Essential Medium (MVEM) and are plated in 96 well Cell Carrier Ultra plate with PDL coated surface (PerkinElmer) prior to running an experiment.
Cells were transfected with buffer control (PBS) or LNPs encapsulating Luciferase mRNA (25 ng per well; N=4 replicate wells) in serum-free MEM media. LNP transfected cells were incubated for 5 h, followed by media removal and supplementation with complete MEM media. Cells were further incubated in complete MEM media overnight (24 h). Following the 24 hr incubation, luciferase protein expression was measured using the ONE-Glo™ Luciferase Assay (Promega). Cells were lysed using 1× Passive Lysis Buffer (Cat. #E194A) for 10 min in a microplate mixer at room temperature. Luciferase in the supernatant was measured by adding Luciferase Assay Reagent (Cat. #E151A) containing luciferin. Bioluminescence was then immediately measured on a Synergy H1 plate reader (BioTek). The results shown in Table 3a show the Average Relative Light Units (RLU) of each sample tested.

[5] = CFTR mRNA nanoparticle with lipid amine
[6] = Luciferase mRNA nanoparticle modified with lipid amine

Row | SMILES | Average fold-change in CFTR signal intensity per cell compared to buffer control ± standard deviation (HeLa cells [1]) [fold-change] | Diameter (nm) [2, 5] [nm] | PDI [2, 5] | Diameter (nm) [2, 6] [nm] | PDI [2, 6] | % Encapsulation (Ribogreen) [3, 5] [%] | % Encapsulation (Ribogreen) [3, 6] [%] | Average Relative Light Units ± Standard Deviation (HeLa cells [4]) [Relative Light Units]
1 | CC[C@H](CC[C@@H](C)[C@H]1CC[C@H]2[C@@H]3CC=C4C[C@@H](OC(=O)CCCC(=O)N(CCCN)CCCCCCCCN)CC[C@]4(C)[C@H]3CC[C@]12C)C(C)C.Cl.Cl [SA135, (3S,8S,9S,10R,13R,14S,17R)-17-((2R,5R)-5-ethyl-6-methylheptan-2-yl)-10,13-dimethyl-2,3,4,7,8,9,10,11,12,13,14,15,16,17-tetradecahydro-1H-cyclopenta[a]phenanthren-3-yl 5-((8-aminooctyl)(3-aminopropyl)amino)-5-oxopentanoate dihydrochloride] | 16.6 ± 1.5 | 73.5 | 0.11 | 71 | 0.12 | 98.0 | 99.3 | 27499.8 ± 7269.5
2 | CC[C@H](CC[C@@H](C)[C@H]1CC[C@H]2[C@@H]3CC=C4C[C@@H](OC(=O)N(CCCN)CCCCCCN)CC[C@]4(C)[C@H]3CC[C@]12C)C(C)C [SA84, (3S,8S,9S,10R,13R,14S,17R)-17-((2R,5R)-5-Ethyl-6-methylheptan-2-yl)-10,13-dimethyl-2,3,4,7,8,9,10,11,12,13,14,15,16,17-tetradecahydro-1H-cyclopenta[a]phenanthren-3-yl (6-aminohexyl)(3-aminopropyl)carbamate dihydrochloride] | 5.0 ± 0.2 | 82 | 0.13 | 74 | 0.16 | 99.5 | 99.9 | 29639.9 ± 7554
3 | CC(C)CCC[C@@H](C)[C@H]1CC[C@H]2[C@@H]3CC=C4C[C@@H](OC(=O)N(CCCN)CCCCCCN)CC[C@]4(C)[C@H]3CC[C@]12C [SA83, (3S,8S,9S,10R,13R,14S,17R)-10,13-Dimethyl-17-((R)-6-methylheptan-2-yl)-2,3,4,7,8,9,10,11,12,13,14,15,16,17-tetradecahydro-1H-cyclopenta[a]phenanthren-3-yl (6-aminohexyl)(3-aminopropyl)carbamate dihydrochloride] | 4.8 ± 0.3 | 82.3 | 0.15 | 75 | 0.14 | 99.8 | 99.3 | 35394.8 ± 5033.2
4 | CC(C)CCC[C@@H](C)[C@H]1CC[C@H]2[C@@H]3CC=C4C[C@@H](OC(=O)N(CCCCCCN)CCCCCCN)CC[C@]4(C)[C@H]3CC[C@]12C [SA81, (3S,8S,9S,10R,13R,14S,17R)-10,13-Dimethyl-17-((R)-6-methylheptan-2-yl)-2,3,4,7,8,9,10,11,12,13,14,15,16,17-tetradecahydro-1H-cyclopenta[a]phenanthren-3-yl bis(6-aminohexyl)carbamate dihydrochloride] | 4.4 ± 0.3 | 87.6 | 0.18 | 72 | 0.12 | 99.4 | 99.8 | 19619.8 ± 4362.6
5 | C/C(=C/CCC(C)C)[C@H]1CC[C@H]2[C@@H]3CC=C4C[C@@H](OC(=O)N(CCCN)CCCCNCCCN)CC[C@]4(C)[C@H]3CC[C@]12C [SA70, (3S,8S,9S,10R,13R,14S,17R)-10,13-dimethyl-17-((R)-6-methylheptan-2-yl)-2,3,4,7,8,9,10,11,12,13,14,15,16,17-tetradecahydro-1H-cyclopenta[a]phenanthren-3-yl (3-aminopropyl)(4-((3-aminopropyl)amino)butyl)carbamate analog olefin elimination by-product from hydroxycholesterol] | 4.5 ± 0.8 | 76.2 | 0.16 | 76 | 0.21 | 99.8 | 97.9 | 11822.1 ± 4128.6
6 | CC(C)CCC[C@@H](C)[C@H]1CC[C@H]2[C@@H]3CC=C4C[C@@H](OC(=O)C(C)C(=O)N(CCCN)CCCCNCCCN)CC[C@]4(C)[C@H]3CC[C@]12C.Cl.Cl.Cl (stereo partly drawn) [SA62, (3S,8S,9S,10R,13R,14S,17R)-10,13-Dimethyl-17-((R)-6-methylheptan-2-yl)-2,3,4,7,8,9,10,11,12,13,14,15,16,17-tetradecahydro-1H-cyclopenta[a]phenanthren-3-yl 3-((3-aminopropyl)(4-((3-aminopropyl)amino)butyl)amino)-2-methyl-3-oxopropanoate trihydrochloride] | 5.5 ± 1.3 | 74.2 | 0.10 | 78 | 0.20 | 99.6 | 99.0 | 18807.1 ± 6618.4
7 | CC[C@H](CC[C@@H](C)[C@H]1CC[C@H]2[C@@H]3CC=C4C[C@@H](OC(=O)CCCC(=O)N(CCCN)CCCCNCCCN)CC[C@]4(C)[C@H]3CC[C@]12C)C(C)C [SA117, (3S,8S,9S,10R,13R,14S,17R)-17-((2R,5R)-5-ethyl-6-methylheptan-2-yl)-10,13-dimethyl-2,3,4,7,8,9,10,11,12,13,14,15,16,17-tetradecahydro-1H-cyclopenta[a]phenanthren-3-yl 5-((3-aminopropyl)(4-((3-aminopropyl)amino)butyl)amino)-5-oxopentanoate trihydrochloride] | 4.9 ± 1.2 | 94.7 | 0.17 | 77 | 0.28 | 98.6 | 99.7 | 10134.1 ± 3860.2
8 | CC(C)CCC[C@@H](C)[C@H]1CC[C@H]2[C@@H]3CC=C4C[C@@H](OC(=O)CCC(=O)N(CCCCNCCC(C)N)CCC(C)N)CC[C@]4(C)[C@H]3CC[C@]12C (stereo partly drawn) [SA160, (3S,8S,9S,10R,13R,14S,17R)-10,13-dimethyl-17-((R)-6-methylheptan-2-yl)-2,3,4,7,8,9,10,11,12,13,14,15,16,17-tetradecahydro-1H-cyclopenta[a]phenanthren-3-yl 4-((3-aminobutyl)(4-((3-aminobutyl)amino)butyl)amino)-4-oxobutanoate trihydrochloride] | 18.2 ± 1.4 | 77.4 | 0.15 | 75 | 0.11 | 98.1 | 99.7 | 19694.4 ± 6954.5
